These results are taken from patent US8772243B2, “Methods for predicting the response to anti-cancer treatment with an agonist of TLR7 or an agonist of TLR8” (Inserm (Institut National de la Sante et de la Recherche …, priority 2008, dated 2014).

Common to all, as to format: cell-based, human
For assay [1], the system named is A549 cells. The assay is described as follows: Cell cycle analysis (propidium iodide staining). The following applies: PI staining. As for the experimental part: (§1) FIG. 4 TLR7 and 8 induce survival of lung tumor cells. (A) A549 cells were unstimulated, stimulated with loxoribine (10 μg/ml), Poly U (10 μg/ml), or Gardiquimod(10μg/ml) and incubated with Alamar blue for 10 days. Reduction of Alamar blue was then determined by spectrophotometry at 570 and 600 nm. The percentage of reduced Alamar blue was calculated as described by the manufacturer. A549 cells were unstimulated or stimulated with loxoribine, Poly U, Gardiquimod, etoposide, or cycloheximide for 24 h. (B) The percentage of dead cells was determined by Trypan blue exclusion. (C) The DNA content was measured by IP staining after RNAse A treatment. The percentages indicate the proportion of subdiploid (G0/G1) and […]. Data represent mean values±SD from 3 independent experiments (*p<0.05; ** p<0.01, Student test). (D) A549 cells were cultured for 6 h in the presence of loxoribine, Poly U, or Gardiquimod, and the expression of Bcl-2 was assayed using Taq Man Low Density Array technology. The ΔCT values for Bcl-2 expression were calculated by subtraction of the CT value obtained for the 18S housekeeping gene. The ΔΔCT values were obtained by subtraction of ΔCT values for unstimulated cells from those obtained for stimulated cells. The fold increase (arbitrary unit) was obtained by 2^−ΔΔCT.
A549 cells were cultured in the presence of loxoribine, Poly U, Gardiquimod, etoposide, or cycloheximide. After 48 h, the cells were harvested, washed in cold PBS, and fixed with 2 ml of 70% cold ethanol in PBS for 2 h at 4° C. After centrifugation, the supernatant was removed and the pellet was rinsed with 0.5% PBS Tween. It was then incubated with […] of RNAse A and 50 μg of propidium iodide in PBS. Propidium iodide staining was determined with a FACScalibur cytometer.

Assay [2] relates to A549 cells. Briefly: Percentage of dead cells by Trypan blue exclusion. The following applies: 24 h. The method, then: as §1
Assay [3] has as its system 1549, H1355 and SK-MES cells. Briefly: Chemoresistance by colony formation assay. The conditions noted are these: concentration added on day 12 of colony formation assay. The method, then:
Alternatively, chemoresistance was assessed by the colony formation assay. In this assay, 1549, H1355 and SK-MES cells were seeded in 6-well plates (500 cells per well) and incubated for 15 days at 37° under 5% CO2. The cells were left unstimulated or stimulated 100 μM Loxoribine or with 10 μg/ml single-stranded polyU RNA (InvivoGen) on days 0, 3, 6 and 9. On day 12, different anti-cancer agents were added at the respective LD50 (cisplatin and carboplatin 100 μM, navelbine 50 μM, doxorubicine 2 nM). On day 15, the wells ware washed with PBS, and stained with 6% (vol/vol) glutaraldehyde, 0.5% (wt/vol) crystal violet in water for 30 minutes. The cells were washed and the colonies of more than 50 cells counted. Cell survival was calculated as follows: number of colonies after chemotherapy/number of cells seeded on day 0×plating efficiency, where the plating efficiency is number of colonies/number of cells seeded.

Assay [4] has as its system IκBα (NF-κB activation) in A549 cells. Briefly: Western blot of IκBα phosphorylation and degradation (NF-κB activation) in A549 cells. The conditions noted are these: TNF-α 10 ng/ml. As for the experimental part: FIG. 3 TLR7 and TLR8 lead to IκBα phosphorylation, but not degradation. A549 cells were untreated or treated with TNF-α (10 ng/ml) (A, B), loxoribine (10 μg/ml) (C, D), or Poly U (10 μg/ml) (E, F) for the indicated periods of time. The cell lysates were analyzed by immunoblot with anti-phospho-specific IκBα, anti-IκBα and anti-actin antibodies (A, C, E). Quantification of the bands was realized using Image J software (B, D, F). Histograms represent the intensity of each band observed in the blots at the indicated time point and are expressed in arbitrary units normalized to actin intensity (relative intensity) both for phospho-IκBα and IκBα. Results are representative of three independent experiments.
A549 cells (1.10^6 cells) were starved for 4 hours in medium containing 2% FCS, and then stimulated with loxoribine, PolyU, or TNFα (10 ng/ml) for different periods of time as indicated. Cells were lysed in 50 mM Tris-HCl, pH 7.5, 150 mM NaCl, 2 mM EDTA, 0.5% triton X100, 2 mM Na3VO4, 10 mM NaF, and 10 mM sodium pyrophosphate supplemented with a complete protease inhibitor cocktail (Boehringer, Paris, France). Protein contents in the cell lysates were quantified using the quick start Bradford protein assay kit (Biorad, Marnes-La-Coquette, France) to ensure that all samples contained similar amounts of protein. Proteins (30 μg) were resolved in 10% Tris-glycine polyacrylamide gels (Invitrogen, Cergy Pontoise, France) and transferred to PVDF immobilon-P membranes (Millipore, Molsheim, France). Blots were probed with monoclonal antibody against phospho-IκBα (Cell Signaling Technology, Danvers, USA), total IκBα, and actin (Santa Cruz, Le Perray en Yvelines, France).
In order to determine if the TLR7 and 8 expressed by lung tumor cell lines were able to induce intracellular signaling pathways, we studied NF-κB activation in response to stimulation with TNFα, loxoribine (homodimeric TLR7 ligand), or Poly U (homodimeric TLR8 ligand). […] In contrast TLR7 or 8 stimulation led to atypical NF-κB activation. […] Furthermore, we also observed that the kinetics of IκBα phosphorylation were dependent on the stimulus. On the one hand, TNFα stimulation induced two waves of IκBα phosphorylation; the first one after ten minutes was associated with IκBα degradation, and the second one after sixty minutes was not associated with IκBα degradation. On the other hand, we observed that TLR stimulation induced only a phosphorylation of IκBα, with a maximum phosphorylation obtained after thirty minutes without degradation of IκBα.

Turning to `C[C@@H]1C[C@@H]([C@H](O)CC2CC(=O)NC(=O)C2)C(=O)[C@@H](C)C1` [cycloheximide], the “proportion of cells in G0/G1 or G2/M phases versus unstimulated cells” value with A549 cells [1] is given as “significant reduction in the percentage of cells in G0/G1 or G2/M”. The “increase in the percentage of dead cells (positive controls)” value in the assay on A549 cells [2] is on record as 2.5 fold.

With `COc1cccc2c1C(=O)c1c(O)c3c(c(O)c1C2=O)C[C@@](O)(C(=O)CO)C[C@@H]3O[C@H]1C[C@H](N)[C@H](O)[C@H](C)O1` [doxorubicine], in assay [3], the LD50 is given as 2 nM.

Regarding `COc1cc([C@@H]2c3cc4c(cc3[C@@H](O[C@@H]3O[C@@H]5CO[C@@H](C)O[C@H]5[C@H](O)[C@H]3O)[C@H]3COC(=O)[C@H]23)OCO4)cc(OC)c1O` [etoposide], the “proportion of cells in G0/G1 or G2/M phases versus unstimulated cells” value in the assay on A549 cells [1] is “significant reduction in the percentage of cells in G0/G1 or G2/M”. The “increase in the percentage of dead cells (positive controls)” value with A549 cells [2] worked out at 2.5 fold.

Take TNFα: in assay [4], the “first wave of IκBα phosphorylation, associated with IκBα degradation” value is given as “ten” and the “second wave of IκBα phosphorylation, not associated with IκBα degradation” value was “sixty”. In addition, the “IκBα degradation / type of NF-κB activation” value in assay [4] (loxoribine or Poly U 10 μg/ml) was “IκBα phosphorylation and degradation”.
